Laboratory results as given in PubChem BioAssay AID1918952 (Molecular Pharmacology Branch, DTP, NCI, 2023).
“And” between values parts separate entries of the source, which are not always exact repeats. Equal entries are not always repeated.

System: LG0703-F948-PDC complex spheroid viability
Assay: Anticancer human tumor LG0703-F948-PDC patient-derived lung adenocarcinoma cell line growth inhibition
Conditions: for viability, T/C: stronger effect = lower value; active = viability on the fitted dose curve at most 10% of control; inactive = the rest
Outline: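 Drug combinations with the LSD1 inhibitor iadademstat tested on tumor cells co-cultured as spheroids with endothelial cells and mesenchymal stem cells. Concentrations descended in half-log increments from clinical Cmax or 10 microM.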

[1] = curve of first compound, second compound 0.1 µM
[2] = curve of first compound, second compound 0.316 µM
[3] = curve of first compound, second compound 1 µM
[4] = curve of first compound, second compound 3.16 µM
[5] = curve of first compound, second compound 10 µM
[6] = second compound 0.1 µM, first compound 0.00316 µM
[7] = second compound 0.1 µM, first compound 0.01 µM
[8] = second compound 0.1 µM, first compound 0.0316 µM
[9] = second compound 0.1 µM, first compound 0.1 µM
[10] = second compound 0.1 µM, first compound 0.316 µM
[11] = second compound 0.1 µM, first compound 1 µM
[12] = second compound 0.316 µM, first compound 0.00316 µM
[13] = second compound 0.316 µM, first compound 0.01 µM
[14] = second compound 0.316 µM, first compound 0.0316 µM
[15] = second compound 0.316 µM, first compound 0.1 µM
[16] = second compound 0.316 µM, first compound 0.316 µM
[17] = second compound 0.316 µM, first compound 1 µM
[18] = second compound 1 µM, first compound 0.00316 µM
[19] = second compound 1 µM, first compound 0.01 µM
[20] = second compound 1 µM, first compound 0.0316 µM
[21] = second compound 1 µM, first compound 0.1 µM
[22] = second compound 1 µM, first compound 0.316 µM
[23] = second compound 1 µM, first compound 1 µM
[24] = second compound 3.16 µM, first compound 0.00316 µM
[25] = second compound 3.16 µM, first compound 0.01 µM
[26] = second compound 3.16 µM, first compound 0.0316 µM
[27] = second compound 3.16 µM, first compound 0.1 µM
[28] = second compound 3.16 µM, first compound 0.316 µM
[29] = second compound 3.16 µM, first compound 1 µM
[30] = second compound 10 µM, first compound 0.00316 µM
[31] = second compound 10 µM, first compound 0.01 µM
[32] = second compound 10 µM, first compound 0.0316 µM
[33] = second compound 10 µM, first compound 0.1 µM
[34] = second compound 10 µM, first compound 0.316 µM
[35] = second compound 10 µM, first compound 1 µM
[36] = second compound 0.1 µM, first compound 3.16 µM
[37] = second compound 0.1 µM, first compound 10 µM
[38] = second compound 0.316 µM, first compound 3.16 µM
[39] = second compound 0.316 µM, first compound 10 µM
[40] = second compound 1 µM, first compound 3.16 µM
[41] = second compound 1 µM, first compound 10 µM
[42] = second compound 3.16 µM, first compound 3.16 µM
[43] = second compound 3.16 µM, first compound 10 µM
[44] = second compound 10 µM, first compound 3.16 µM
[45] = second compound 10 µM, first compound 10 µM
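Note: spheroids exposed to agents for seven days before readout.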
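Throughout, for viability, T/C: 100% = DMSO vehicle control wells as normalization base.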

CCc1c2c(nc3ccc(O)cc13)-c1cc3c(c(=O)n1C2)COC(=O)[C@]3(O)CC + NC1CCC(NC2CC2c2ccccc2)CC1
5.11 nM: IC50 [5]
1.31 nM: IC50 [1]
inactive: viability, T/C (second compound 0.1 µM, first compound 0.000949 µM) 55.8% | viability, T/C (second compound 0.1 µM, first compound 0.003 µM) 36.4% | viability, T/C (second compound 0.1 µM, first compound 0.00949 µM) 23.9% | viability, T/C (second compound 0.1 µM, first compound 0.03 µM) 15% | viability, T/C (second compound 0.316 µM, first compound 0.000949 µM) 63.7% | viability, T/C (second compound 0.316 µM, first compound 0.003 µM) 40.2% | viability, T/C (second compound 0.316 µM, first compound 0.00949 µM) 24.8% | viability, T/C (second compound 0.316 µM, first compound 0.03 µM) 15.1% | viability, T/C (second compound 1 µM, first compound 0.000949 µM) 62.8% | viability, T/C (second compound 1 µM, first compound 0.003 µM) 40.8% | viability, T/C (second compound 1 µM, first compound 0.00949 µM) 27.6% | viability, T/C (second compound 1 µM, first compound 0.03 µM) 15.9% | viability, T/C (second compound 3.16 µM, first compound 0.000949 µM) 64.8% | viability, T/C (second compound 3.16 µM, first compound 0.003 µM) 52.5% | viability, T/C (second compound 3.16 µM, first compound 0.00949 µM) 35.3% | viability, T/C (second compound 3.16 µM, first compound 0.03 µM) 18.1% | viability, T/C (second compound 10 µM, first compound 0.000949 µM) 78.8% | viability, T/C (second compound 10 µM, first compound 0.003 µM) 59% | viability, T/C (second compound 10 µM, first compound 0.00949 µM) 39.6% | viability, T/C (second compound 10 µM, first compound 0.03 µM) 19.9%
active: viability, T/C (second compound 0.1 µM, first compound 0.0949 µM) 8.81% | viability, T/C (second compound 0.1 µM, first compound 0.3 µM) 4.02% | viability, T/C (second compound 0.316 µM, first compound 0.0949 µM) 7.91% | viability, T/C (second compound 0.316 µM, first compound 0.3 µM) 3.79% | viability, T/C (second compound 1 µM, first compound 0.0949 µM) 7.93% | viability, T/C (second compound 1 µM, first compound 0.3 µM) 3.95% | viability, T/C (second compound 3.16 µM, first compound 0.0949 µM) 7.91% | viability, T/C (second compound 3.16 µM, first compound 0.3 µM) 4.52% | viability, T/C (second compound 10 µM, first compound 0.0949 µM) 8.18% | viability, T/C (second compound 10 µM, first compound 0.3 µM) 3.7%
1.89 nM: IC50 [3]
1.87 nM: IC50 [2]
3.61 nM: IC50 [4]

Nc1ncn(C2CC(O)C(CO)O2)c(=O)n1 (configuration not stated) + NC1CC1c1ccc(-c2cccc(O)c2)cc1
> 1000 nM: IC50 [1] | IC50 [2] | IC50 [3] | IC50 [4] | IC50 [5]
inactive: viability, T/C [6] 106% | viability, T/C [7] 111% | viability, T/C [8] 99.3% | viability, T/C [9] 116% | viability, T/C [10] 85.4% | viability, T/C [11] 88.9% | viability, T/C [12] 116% | viability, T/C [13] 117% | viability, T/C [14] 106% | viability, T/C [15] 95.2% | viability, T/C [16] 95.7% | viability, T/C [17] 94.3% | viability, T/C [18] 106% | viability, T/C [19] 103% | viability, T/C [20] 104% | viability, T/C [21] 95.7% | viability, T/C [22] 96.3% | viability, T/C [23] 94.6% | viability, T/C [24] 108% | viability, T/C [25] 112% | viability, T/C [26] 99.8% | viability, T/C [27] 89.7% | viability, T/C [28] 105% | viability, T/C [29] 105% | viability, T/C [30] 103% | viability, T/C [31] 104% | viability, T/C [32] 107% | viability, T/C [33] 106% | viability, T/C [34] 98.4% | viability, T/C [35] 95.3%

COc1ccc([C@@H](O)c2cc(-c3ncnc4cc(N5CCOCC5)ccc34)c(F)cc2Cl)nn1 + NC1CC1c1ccc(-c2cccc(O)c2)cc1
1520 nM: IC50 [1]
1590 nM: IC50 [2]
1490 nM: IC50 [3]
active: viability, T/C [37] 3.8% | viability, T/C [39] 4.64% | viability, T/C [41] 3.41% | viability, T/C [43] 2.59% | viability, T/C [45] 2.33%
1210 nM: IC50 [4]
1140 nM: IC50 [5]
inactive: viability, T/C [8] 90.3% | viability, T/C [9] 110% | viability, T/C [10] 96.5% | viability, T/C [11] 61% | viability, T/C [36] 27.2% | viability, T/C [14] 112% | viability, T/C [15] 98.2% | viability, T/C [16] 98.7% | viability, T/C [17] 68.2% | viability, T/C [38] 23% | viability, T/C [20] 98.8% | viability, T/C [21] 96.7% | viability, T/C [22] 98.7% | viability, T/C [23] 63.8% | viability, T/C [40] 21.7% | viability, T/C [26] 107% | viability, T/C [27] 101% | viability, T/C [28] 86.1% | viability, T/C [29] 59.2% | viability, T/C [42] 16.3% | viability, T/C [32] 108% | viability, T/C [33] 99.4% | viability, T/C [34] 90.4% | viability, T/C [35] 57.9% | viability, T/C [44] 7.24%

O=C(c1cc(Cc2n[nH]c(=O)c3ccccc23)ccc1F)N1CCN(C(=O)C2CC2)CC1 + NC1CCC(NC2CC2c2ccccc2)CC1
> 10000 nM: IC50 [1] | IC50 [2] | IC50 [3] | IC50 [4] | IC50 [5]
inactive: viability, T/C [8] 101% | viability, T/C [9] 100% | viability, T/C [10] 91.5% | viability, T/C [11] 99.4% | viability, T/C [36] 80.9% | viability, T/C [37] 76.8% | viability, T/C [14] 112% | viability, T/C [15] 117% | viability, T/C [16] 106% | viability, T/C [17] 89.4% | viability, T/C [38] 94.3% | viability, T/C [39] 84% | viability, T/C [20] 121% | viability, T/C [21] 125% | viability, T/C [22] 123% | viability, T/C [23] 130% | viability, T/C [40] 95.3% | viability, T/C [41] 98.2% | viability, T/C [26] 116% | viability, T/C [27] 110% | viability, T/C [28] 113% | viability, T/C [29] 107% | viability, T/C [42] 112% | viability, T/C [43] 106% | viability, T/C [32] 109% | viability, T/C [33] 106% | viability, T/C [34] 103% | viability, T/C [35] 109% | viability, T/C [44] 94% | viability, T/C [45] 84%

CCN(c1cc(-c2ccc(CN3CCOCC3)cc2)cc(C(=O)NCc2c(C)cc(C)[nH]c2=O)c1C)C1CCOCC1
inactive: viability, T/C (compound 0.00949 µM) 119% and 92.8% | viability, T/C (compound 0.03 µM) 97.8% and 90.4% | viability, T/C (compound 0.0949 µM) 101% and 97.6% | viability, T/C (compound 0.3 µM) 101% and 90.8% | viability, T/C (compound 0.949 µM) 105% and 96% | viability, T/C (compound 3 µM) 102% and 96.7%
> 3000 nM: IC50 (curve of compound)

CC(C)CC(NC(=O)C(Cc1ccccc1)NC(=O)c1cnccn1)B(O)O (configuration not stated) + NC1CCC(NC2CC2c2ccccc2)CC1
< 0.316 nM: IC50 [1] | IC50 [2] | IC50 [3] | IC50 [4] | IC50 [5]
active: viability, T/C (second compound 0.1 µM, first compound 0.000316 µM) 8.14% | viability, T/C (second compound 0.1 µM, first compound 0.001 µM) 0.63% | viability, T/C [6] 0.43% | viability, T/C [7] 0.05% | viability, T/C [8] 0.04% | viability, T/C [9] 0.13% | viability, T/C (second compound 0.316 µM, first compound 0.000316 µM) 8.59% | viability, T/C (second compound 0.316 µM, first compound 0.001 µM) 1.33% | viability, T/C [12] 0.03% | viability, T/C [13] 0.82% | viability, T/C [14] 0.07% | viability, T/C [15] 0.11% | viability, T/C (second compound 1 µM, first compound 0.000316 µM) 7.45% | viability, T/C (second compound 1 µM, first compound 0.001 µM) 0.3% | viability, T/C [18] 0.12% | viability, T/C [19] 0.06% | viability, T/C [20] 0.02% | viability, T/C [21] 0.1% | viability, T/C (second compound 3.16 µM, first compound 0.000316 µM) 5.46% | viability, T/C (second compound 3.16 µM, first compound 0.001 µM) 0.14% | viability, T/C [24] 0.04% | viability, T/C [25] 0.1% | viability, T/C [26] 0.03% | viability, T/C [27] 0.12% | viability, T/C (second compound 10 µM, first compound 0.000316 µM) 1.9% | viability, T/C (second compound 10 µM, first compound 0.001 µM) 0.49% | viability, T/C [30] 0.29% | viability, T/C [31] 0.18% | viability, T/C [32] 0.13% | viability, T/C [33] 0.25%
